Measured values as given in a compilation of properties of binary mixtures (doi:10.1016/j.jtice.2014.04.012).

Experiment: xn = mol fraction of the nth substance listed
Settings: 100 kPa

CN(C)C=O + CCCC[n+]1ccn(C)c1.F[B-](F)(F)F
x2 = 0
Settings | viscosity [mPa·s]
303.15 K | 0.77
313.15 K | 0.688
323.15 K | 0.619

CCCC[n+]1ccn(C)c1.F[B-](F)(F)F + CN(C)C=O
viscosity [mPa·s]
Settings | x1 = 0.1008 | x1 = 0.2015 | x1 = 0.3022 | x1 = 0.4024 | x1 = 0.502 | x1 = 0.6024 | x1 = 0.7019 | x1 = 0.8015 | x1 = 0.9002 | x1 = 1
303.15 K | – | 2.598 | 4.414 | 7.178 | 11.55 | 17.99 | 26.92 | 39.91 | 58.87 | 85.4
313.15 K | 1.298 | 2.198 | 3.585 | 5.632 | 8.76 | 13.13 | 19.05 | – | 38.08 | –
323.15 K | 1.142 | 1.892 | – | 4.587 | 6.849 | 10 | – | 19.37 | 26.77 | 36.27
333.15 K | 1.012 | 1.631 | 2.53 | 3.873 | 5.565 | 7.857 | – | 14.43 | 19.11 | 25.46
